{"source": "patent US20160051526A1", "about": "“The Local Treatment of Inflammatory Ophthalmic Disorders” (CRESSET BIOMOLECULAR DISCOVERY LTD, priority 2013, published 2016)", "key": {"[1]": {"system": "phosphatase PP2A", "experiment": "Inhibition of the phosphatase PP2A", "type": "biochemical", "conditions": "statement in summary, no method or data given"}, "[2]": {"system": "Human cord derived mast cells", "experiment": "Inhibition of Prostaglandin D2 release from human mast cells", "type": "cell-based", "conditions": "IgE challenged human cord derived mast cells; FIG. 2", "protocol": "Human cord derived mast cells were cultured using the methodology described in Example 1. A commercially-available enzyme immunoassay (Cayman Chemical, Michigan, USA) was used to detect and quantify PGD2 released in the supernatant. The assay was conducted following the manufacturer's standard protocols. A standard curve ranging from 78-10,000 pg/ml PGD2 was prepared using the reagent provided and the optical density was then read within 60 min in a microplate reader (at 405 nm)."}, "[3]": {"system": "Mice (Balb/C strain)", "experiment": "Murine model of allergic conjunctivitis (ragweed pollen)", "type": "in vivo, mouse", "conditions": "40 μl of a 2% solution twice daily to the eye", "protocol": "Mice (Balb/C strain) were sensitised to ragweed pollen by injection of the extract mixed with alum into the hind paw. A control group was immunised with alum alone. Five animals were used in each group.\nEleven days after the initial immunisation with ragweed pollen extract the mice were challenged daily with Ragweed pollen by application to the eye (150 mg/ml antigen) and dosed twice daily (prior and after challenge with ragweed extract) with either Phosphate buffered saline (PBS, control) or 40 μl of a 2% solution of Nalidixic acid. All applications were to the left eye with the right eye acting as a control.\nConjunctivitis was assessed on the 10th day 1 hour after the final application of the ragweed antigen. This assessment was performed by an operator unaware of the dosing protocol for the animals.\nClinical scores of each group were compared statistically using the non-parametric Kruskal-Wallis test with Dunns multiple comparison test correction applied (FIG. 4).\nIn addition, histological analysis of sections of the conjunctiva was used to assess the number of migrating eosinophils into the tissue, a key measure of the inflammatory process."}, "[4]": {"system": "Human cord derived mast cells", "experiment": "Release of Annexin-A1 from human mast cells (ELISA)", "type": "cell-based", "conditions": "increasing concentrations, conditioned medium, FIG. 3", "protocol": "Human cord derived mast cells were cultured using the methodology described in Example 1. Anx-A1 protein levels in conditioned medium were determined by ELISA. Briefly, 96-well flat-bottomed ELISA plates (Greiner, Gloucestershire, UK) were coated with 1 μg anti-Anx-A1 mAb 1B in bicarbonate buffer (pH 9.6) and incubated overnight at 4° C. After washing in the bicarbonate buffer, potentially uncoated sites were blocked with 100 μL of PBS containing 1% BSA for 1 h at room temperature. Sample aliquots (100 μL) or Anx-A1 standard solutions (prepared in 0.1% Tween-20 in PBS; concentration ranging between 10 and 0.001 μg/mL) were added for 1 h at 37° C. After extensive washing in PBS/Tween-20, 100 μL of a polyclonal rabbit anti-human Anx-A1 serum (Zymed, Invitrogen, Paisley, UK; diluted 1:1000 in PBS/Tween-20) was added (1 h at 37° C.) prior to incubation with donkey anti-rabbit 1 gG conjugated to alkaline phosphatase (1:1000; Sigma). The colour was developed by addition of 100 μL p-nitrophenyl phosphate (1 mg/mL in bicarbonate buffer, pH 9.6). Absorbance was read at 405 nm (with a 620-nm reference filter) in a microplate reader (TitertekTM, Vienna, Austria). Anx-A1 levels in the study samples were read against the standard curve and expressed as ng/ml."}, "[5]": {"system": "Human derived cord mast cells", "experiment": "Inhibition of histamine release from human mast cells", "type": "cell-based", "conditions": "IgE challenged human cord derived mast cells, 5 min incubation; FIG. 1", "protocol": "Protocol: Human derived cord mast cells were cultured using the following method. Commercially available CD34^+ stem cells were cultured for […] in StemSpan (StemCell Technologies, Grenoble, France) serum-free medium supplemented with 100 ng/ml human SCF, 50 ng/ml IL-6 and 1 ng/ml IL-3, and 100 μg/ml penicillin/streptomycin (Peprotech, London, UK). After eight weeks, cells were cultured in StemSpan with 10% FCS. The cells were passaged into new medium every week. Cells were used for experiments between 11 and 18 weeks following confirmation by microscopic examination, c-kit and FcRε1 staining (by FACS), of mast cell morphology. For assessment of drug effects, Nalidixic acid was incubated for 5 min with aliquots of 2×10^5 CDMCs (cord derived mast cells) cultured in 10% FCS medium. A commercially-available enzyme immunoassay was used to detect and quantify histamine released in the supernatant (SPI bio, Strasbourg, France). The assay was conducted following the manufacturer's standard protocols. A standard curve ranging from 0.39-50 nM histamine was prepared using the reagent provided and the optical density was then read within 60 min in a microplate reader (at 405 nm). In some cases, the total cell content of histamine was established by freeze thawing of cells prior to challenge."}, "[6]": {"system": "male C57BL/6 mice", "experiment": "Murine model of endotoxin induced uveitis", "type": "in vivo, mouse", "conditions": "0.1 μg intravitreal co-injected with LPS; about 15 hours after endotoxin; FIG. 5", "protocol": "The efficacy of locally applied Nalidixic acid as a potential treatment for uveitis was explored. Experimental uveitis was induced in male C57BL/6 mice (n=5 animals per group) by the intravitreal injection of the endotoxin lipopolysaccharide (LPS 0.5 ng/ml) co-injected with either vehicle (phosphate buffered saline) or Nalidixic acid at a final concentration of 0.1 μg into alternate eyes. The other eye acting as control. The inflammatory response in this model is characterised by invasion of inflammatory cells and in particular invasion of neutrophils into the retina peaks at approximately 15 hours after endotoxin treatment at which time the animals were culled. Retinas from the animals were dissected and digested into a single cell suspension. Cell numbers from retinal tissue were measured by fluorescence-activated cell sorting (FACS) analysis."}}}
{"smiles": "CCn1cc(C(=O)O)c(=O)c2ccc(C)nc21", "note": "[Nalidixic acid]", "values": [{"measurement": "inhibition of the phosphatase PP2A", "setting": "[1]", "result": "potent inhibitors"}, {"measurement": "inhibition of the inflammatory prostanoid PGD2 release", "setting": "[2]", "result": "dose related inhibition"}, {"measurement": "clinical scores of conjunctivitis", "setting": "[3]; assessed 10th day, 1 hour after final ragweed challenge, FIG. 4", "result": "significant attenuation of the development of conjunctivitis"}, {"measurement": "number of migrating eosinophils in conjunctival tissue (histology)", "setting": "[3]; p<0.001 vs immunised PBS control", "result": "no migrating eosinophils"}, {"measurement": "Annexin-A1 released from human mast cells", "setting": "[4]", "result": "increase"}, {"measurement": "inhibition of the inflammatory mediator histamine (% net histamine release)", "setting": "[5]", "result": "dose related inhibition"}, {"measurement": "invading neutrophils in retinal tissue (FACS)", "setting": "[6]", "result": "clear reduction in invading neutrophils"}]}
